Measurements: ChEMBL document CHEMBL1201862, “PubChem BioAssay data set” (2004)
The source made the active and inactive calls.

Experiments:
Genome polyprotein = Genome polyprotein (dengue virus type 2, UniProt P29990); assay: Dengue-2 NS5 methyltransferase inhibitors, primary screen, biochemical, confirmation dose response (AID 588689); assay type: functional
Cytochrome P450 2C19 = Cytochrome P450 2C19 (Homo sapiens, UniProt P33261); assay: Cytochrome panel assay with activity outcomes. Panel member name: p450-cyp2c19 Compounds with AC50 equal or less than 10 uM are considered active; assay type: functional; settings: read-out: AC50
Cytochrome P450 2C19, sequence (P33261 whole entry): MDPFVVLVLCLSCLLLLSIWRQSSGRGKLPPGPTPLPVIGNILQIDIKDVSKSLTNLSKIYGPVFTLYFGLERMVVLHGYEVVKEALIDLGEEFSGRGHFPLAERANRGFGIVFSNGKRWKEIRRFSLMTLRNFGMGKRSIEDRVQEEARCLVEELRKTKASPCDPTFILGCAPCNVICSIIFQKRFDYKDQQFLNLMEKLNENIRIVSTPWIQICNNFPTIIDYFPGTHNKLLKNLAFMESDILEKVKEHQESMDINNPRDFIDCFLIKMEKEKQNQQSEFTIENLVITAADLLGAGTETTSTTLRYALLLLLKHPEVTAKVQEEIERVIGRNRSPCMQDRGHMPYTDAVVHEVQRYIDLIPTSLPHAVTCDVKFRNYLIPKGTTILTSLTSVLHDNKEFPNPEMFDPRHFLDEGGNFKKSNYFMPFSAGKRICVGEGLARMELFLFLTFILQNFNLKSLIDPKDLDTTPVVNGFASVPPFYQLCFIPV

Cytochrome P450 2D6 = Cytochrome P450 2D6 (Homo sapiens, UniProt P10635);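 further: CYP2D6 member of a cytochrome P450 panel assay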
Cytochrome P450 2D6, sequence (P10635 whole entry): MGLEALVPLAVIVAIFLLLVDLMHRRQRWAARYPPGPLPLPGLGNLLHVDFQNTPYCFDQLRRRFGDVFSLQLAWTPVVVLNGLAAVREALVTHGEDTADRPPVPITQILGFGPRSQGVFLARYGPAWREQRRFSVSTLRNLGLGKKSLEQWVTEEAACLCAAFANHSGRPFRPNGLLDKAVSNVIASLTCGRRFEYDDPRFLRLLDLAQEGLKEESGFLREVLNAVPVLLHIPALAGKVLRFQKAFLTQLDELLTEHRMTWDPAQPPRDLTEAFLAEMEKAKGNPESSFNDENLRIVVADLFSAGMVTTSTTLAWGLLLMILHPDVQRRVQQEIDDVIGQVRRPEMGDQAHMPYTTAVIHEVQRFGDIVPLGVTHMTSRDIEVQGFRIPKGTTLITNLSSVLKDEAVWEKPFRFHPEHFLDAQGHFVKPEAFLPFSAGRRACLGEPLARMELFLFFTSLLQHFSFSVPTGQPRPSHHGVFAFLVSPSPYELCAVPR

Cytochrome P450 2C9 = Cytochrome P450 2C9 (Homo sapiens, UniProt P11712)
Cytochrome P450 2C9, sequence (P11712 whole entry): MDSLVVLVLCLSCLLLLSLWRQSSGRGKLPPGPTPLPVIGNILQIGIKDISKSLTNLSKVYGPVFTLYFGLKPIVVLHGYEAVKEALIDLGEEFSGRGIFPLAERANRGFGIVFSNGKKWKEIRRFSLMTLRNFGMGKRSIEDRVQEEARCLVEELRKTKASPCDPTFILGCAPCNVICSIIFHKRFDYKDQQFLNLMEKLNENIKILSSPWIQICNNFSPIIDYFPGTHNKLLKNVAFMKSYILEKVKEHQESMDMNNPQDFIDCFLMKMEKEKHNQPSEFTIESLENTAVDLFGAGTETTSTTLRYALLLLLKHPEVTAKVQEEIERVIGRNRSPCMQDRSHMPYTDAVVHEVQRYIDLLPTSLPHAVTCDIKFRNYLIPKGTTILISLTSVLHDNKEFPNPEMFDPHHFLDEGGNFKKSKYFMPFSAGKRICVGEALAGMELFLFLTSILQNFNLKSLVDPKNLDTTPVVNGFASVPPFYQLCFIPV

Cytochrome P450 1A2 = biological target: T1, Cytochrome P450 1A2 (Homo sapiens, UniProt P05177);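 further: PubChem cytochrome P450 panel assay, CYP1A2 panel member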
T1 sequence (P05177 whole entry): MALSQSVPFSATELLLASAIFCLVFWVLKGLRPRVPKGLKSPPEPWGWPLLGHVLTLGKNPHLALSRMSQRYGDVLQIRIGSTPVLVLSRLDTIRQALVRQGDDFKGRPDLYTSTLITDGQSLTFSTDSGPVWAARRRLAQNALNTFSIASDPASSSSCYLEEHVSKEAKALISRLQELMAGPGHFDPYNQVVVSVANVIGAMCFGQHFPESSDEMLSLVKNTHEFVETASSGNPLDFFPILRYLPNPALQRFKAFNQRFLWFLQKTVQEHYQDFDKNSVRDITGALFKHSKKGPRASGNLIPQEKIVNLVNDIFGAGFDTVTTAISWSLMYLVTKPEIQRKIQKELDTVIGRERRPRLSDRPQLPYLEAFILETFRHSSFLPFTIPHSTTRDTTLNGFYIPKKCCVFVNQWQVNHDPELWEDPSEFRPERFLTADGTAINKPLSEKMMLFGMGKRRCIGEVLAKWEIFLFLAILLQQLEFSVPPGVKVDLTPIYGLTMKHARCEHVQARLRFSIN

Cytochrome P450 3A4 = Cytochrome P450 3A4 (Homo sapiens, UniProt P08684);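 further: CYP3A4 tested as one member of a cytochrome P450 panel screen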
Cytochrome P450 3A4, sequence (P08684 whole entry): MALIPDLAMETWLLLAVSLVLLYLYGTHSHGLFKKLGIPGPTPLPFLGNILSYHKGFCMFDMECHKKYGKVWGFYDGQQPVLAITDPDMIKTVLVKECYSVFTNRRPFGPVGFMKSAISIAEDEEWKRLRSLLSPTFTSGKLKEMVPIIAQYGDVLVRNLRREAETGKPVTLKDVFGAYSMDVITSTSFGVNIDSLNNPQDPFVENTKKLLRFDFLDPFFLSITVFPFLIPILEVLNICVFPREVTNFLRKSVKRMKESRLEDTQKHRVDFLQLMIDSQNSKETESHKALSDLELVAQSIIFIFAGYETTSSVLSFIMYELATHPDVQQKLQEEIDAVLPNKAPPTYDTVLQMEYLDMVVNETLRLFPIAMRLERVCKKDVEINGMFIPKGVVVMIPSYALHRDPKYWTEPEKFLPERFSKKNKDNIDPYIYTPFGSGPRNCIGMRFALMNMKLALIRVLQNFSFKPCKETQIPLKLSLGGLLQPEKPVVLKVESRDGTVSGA

[1] = biological target: T2, Polyadenylate-binding protein 1 (Homo sapiens, UniProt P11940); assay: PABP1 MLLE–PAM2 interaction inhibitors, dose response, miRNA deadenylation inhibitor project, biochemical, fluorescence polarization, Cy5-PAM2 peptide, secondary (AID 602260); assay type: functional; settings: read-out: IC50_Mean
T2 sequence (P11940 whole entry): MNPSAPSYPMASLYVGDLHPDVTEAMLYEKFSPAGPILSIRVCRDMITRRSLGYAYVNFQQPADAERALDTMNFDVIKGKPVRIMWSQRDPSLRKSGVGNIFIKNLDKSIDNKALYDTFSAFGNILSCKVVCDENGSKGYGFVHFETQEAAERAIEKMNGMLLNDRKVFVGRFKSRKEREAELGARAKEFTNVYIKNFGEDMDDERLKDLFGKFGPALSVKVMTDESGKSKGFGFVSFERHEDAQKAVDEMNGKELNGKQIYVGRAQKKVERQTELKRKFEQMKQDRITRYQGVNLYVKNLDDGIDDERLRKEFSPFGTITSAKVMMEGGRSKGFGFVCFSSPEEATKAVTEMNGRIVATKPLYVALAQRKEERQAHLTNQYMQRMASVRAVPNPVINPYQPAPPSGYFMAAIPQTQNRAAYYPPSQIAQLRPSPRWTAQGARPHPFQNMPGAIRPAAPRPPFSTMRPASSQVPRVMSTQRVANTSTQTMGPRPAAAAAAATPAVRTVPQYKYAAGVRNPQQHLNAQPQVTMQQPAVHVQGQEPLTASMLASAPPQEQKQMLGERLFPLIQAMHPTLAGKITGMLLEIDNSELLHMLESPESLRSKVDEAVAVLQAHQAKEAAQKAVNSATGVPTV

[2] = biological target: T2, Polyadenylate-binding protein 1; assay: PABP1 MLLE–PAM2 binding inhibitor potency, dose response, biochemical, fluorescence polarization, FITC-PAM2 peptide (AID 602259); assay type: functional; settings: read-out: IC50_Mean

Genome polyprotein, sequence (P29990 2492-3391 limits assumed): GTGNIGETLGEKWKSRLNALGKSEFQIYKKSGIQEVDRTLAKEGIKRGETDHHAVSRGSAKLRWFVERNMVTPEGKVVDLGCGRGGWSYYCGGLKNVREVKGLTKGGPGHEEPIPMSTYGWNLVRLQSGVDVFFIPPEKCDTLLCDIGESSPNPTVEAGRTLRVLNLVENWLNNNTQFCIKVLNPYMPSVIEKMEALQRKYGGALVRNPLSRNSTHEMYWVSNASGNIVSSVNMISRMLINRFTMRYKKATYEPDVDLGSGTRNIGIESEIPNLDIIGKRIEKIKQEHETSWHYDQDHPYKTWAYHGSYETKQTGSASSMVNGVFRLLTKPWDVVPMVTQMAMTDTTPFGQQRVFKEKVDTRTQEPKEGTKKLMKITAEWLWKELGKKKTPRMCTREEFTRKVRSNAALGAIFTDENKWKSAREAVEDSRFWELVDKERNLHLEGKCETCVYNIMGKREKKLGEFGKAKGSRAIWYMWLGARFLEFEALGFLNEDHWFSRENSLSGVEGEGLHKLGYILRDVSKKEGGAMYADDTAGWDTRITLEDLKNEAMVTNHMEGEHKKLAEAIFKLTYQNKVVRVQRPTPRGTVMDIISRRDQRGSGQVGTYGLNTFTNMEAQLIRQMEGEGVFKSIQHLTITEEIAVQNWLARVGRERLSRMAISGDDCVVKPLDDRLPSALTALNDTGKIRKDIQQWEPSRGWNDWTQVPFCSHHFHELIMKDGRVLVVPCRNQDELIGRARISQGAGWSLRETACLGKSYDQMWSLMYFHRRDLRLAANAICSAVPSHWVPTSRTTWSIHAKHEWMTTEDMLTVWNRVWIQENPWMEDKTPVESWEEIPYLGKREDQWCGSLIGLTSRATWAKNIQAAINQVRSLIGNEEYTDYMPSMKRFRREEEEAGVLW

Structure (SMILES) | IC50 (Genome polyprotein) | AC50 (Cytochrome P450 2D6) | AC50 (Cytochrome P450 2C9) | AC50 (Cytochrome P450 3A4) | also measured
C#CCOc1c(Cl)cc(/C=C2/C(=O)ON=C2C)cc1OCC | > 100 µM (active) | – | – | – | –
O=C(OC[C@@H](O)CO)c1ccccc1Nc1ccnc2cc(Cl)ccc12 | – | 12.6 µM (inconclusive) | 15.8 µM (inconclusive) | – | AC50 (Cytochrome P450 2C19): 3.98 µM (inconclusive)
CCCCCC1=C2CNC(C)(C(=O)OC)C=C2C(C)C1=O (stereo unspecified) | – | 25.1 µM (inconclusive) | 31.6 µM (inconclusive) | – | AC50 (Cytochrome P450 1A2): 25.1 µM (inconclusive)
CO[C@H]1C=C2CCN(C)[C@@H]2[C@@H]2c3cc4c(cc3C(=O)O[C@H]21)OCO4 | – | 10 µM (inconclusive) | – | – | AC50 (Cytochrome P450 1A2): 12.6 µM (inconclusive)
N#Cc1c(NC(=O)C(F)(F)F)sc2c3c(=O)c4ccccc4c(=O)c=3oc3ccccc3c12 | – | 0.794 µM (inconclusive) | – | 3.98 µM (inconclusive) | –
O=C1OC(c2ccccc2)C(C(=O)c2ccc(Cl)cc2)=C1O (stereo unspecified) | 83.4 µM (active) | – | – | – | –
COC(=O)C1=C(C(=O)OC)C(c2ccccc2O)c2sc(O)nc2S1 (stereo unspecified) | 93.2 µM (active) | – | – | – | IC50 [1]: > 66 µM (inactive); IC50 [2]: > 66 µM (inactive)
CN(C)c1ncc2nc(CCc3ccccc3)c(=O)n(C3CC3)c2n1 | – | 10 µM (inconclusive) | – | 10 µM (inconclusive) | –
O=C(Nc1ccc(OC(F)(F)F)cc1)c1n[nH]c(Cn2cncn2)n1 | – | 20 µM (inconclusive) | 11.2 µM (inconclusive) | 15.8 µM (inconclusive) | AC50 (Cytochrome P450 2C19): 2.51 µM (inconclusive)
